Laboratory results from patent US7972645B2, “Dioscorea extracts for enhancing immune system” (Academia Sinica, priority 2003, dated 2011).

System: NF-κB-inducible ELAM-1 composite promoter
Test: NF-κB-inducible ELAM-1 composite promoter reporter (SEAP) assay in transfected B16 melanoma cells
Format: cell-based
Conditions: Polymyxin B 400 U
Protocol: Briefly, B16 melanoma cells were transfected with a vector carrying the human secreted embryonic alkaline phosphatase (SEAP) gene, whose expression is under the control of a NF-κB-inducible ELAM-1 composite promoter, using a standard method for reporter (SEAP) assay. B16 melanoma cells were transfected with the NF-kB-inducible reporter plasmid pNiFty-SEAP (InvivoGen) in the presence of lipofectin (Invitrogen) for 24 hours. The SEAP secreted into medium was measured according to the manufacturer's instructions (Phospha-Light™ System, Applied Biosystems).
The transfected cells were then incubated with DsCE-I before the chemiluminescent reporter gene assays were conducted. It was known that LPS increased the activity of NF-κB and p38MAPK was involved in the LPS-induced activation. Therefore, LPS (0.1 μg/ml) was used as a positive control (Group A) and the corresponding […] was normalized as 100%. To illustrate the specificity, the effects of inhibitors of the LPS-induced activation were also examined. These inhibitors included SB203580 (“SB,” a p38MAPK inhibitor), PDTC (“PD,” a NF-κB inhibitor), and Polymyxin B (“PB,” an LPS-binding antibiotic). The solvent used to prepare the reagents was used as a negative control (Group J).

Polymyxin B
Inhibition of DsCE-I-induced activation (in words) (DsCE-I 100 μg/ml): only partially inhibited | Inhibition of LPS-induced activation (in words) (LPS 0.1 μg/ml): inhibited LPS-induced activation completely
